The values below come from patent US5795907A, “Gastin and CCK receptor ligands” (James Black Foundation Limited, priority 1994, dated 1998).

Experiment [1] addresses T1, gastrin (Rattus norvegicus, UniProt P30553).
T1 construct: The stomach was lowered into a jacketed organ bath containing 40 ml of buffered solution; from tissue; host or cells: isolated perfused whole stomach of immature rats (ca. 21 days old)
T1 sequence (P30553 1-452): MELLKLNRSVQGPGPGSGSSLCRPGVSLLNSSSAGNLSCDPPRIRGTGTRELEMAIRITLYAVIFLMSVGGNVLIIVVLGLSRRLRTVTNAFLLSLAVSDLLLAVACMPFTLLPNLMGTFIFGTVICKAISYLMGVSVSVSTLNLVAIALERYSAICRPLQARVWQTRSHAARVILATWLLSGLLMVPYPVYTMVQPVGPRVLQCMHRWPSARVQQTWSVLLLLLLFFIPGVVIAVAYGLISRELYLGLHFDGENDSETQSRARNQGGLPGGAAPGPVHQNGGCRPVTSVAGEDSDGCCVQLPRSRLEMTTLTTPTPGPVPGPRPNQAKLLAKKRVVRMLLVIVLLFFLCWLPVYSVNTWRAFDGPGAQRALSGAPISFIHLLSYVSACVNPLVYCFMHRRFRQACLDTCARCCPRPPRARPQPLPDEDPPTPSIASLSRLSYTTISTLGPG
The experiment can be described thus: gastrin antagonist activity in an immature rat stomach assay (pentagastrin-stimulated acid secretion). The settings on record: cumulative pentagastrin dose-response curves after 60 min with drug; for Kb: read-out: Gastrin pKB (converted). Summed up:
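Isolated lumen-perfused immature rat stomach (33-50 g, ca. 21 days) in 37° organ bath with 3×10^-8 M 5-methylfurmethide; acid secretion read by pH electrode in perfusate. Compound added to serosal bath after 120 min stabilisation; cumulative pentagastrin dose-response curves begun 60 min later and analysed by the Black et al. method.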

Experiment [2] concerns the target T2, CCKA (Cavia porcellus, UniProt Q63931).
T2 construct: The pancreatata were homogenised in 40 ml ice-cold HEPES buffer using a polytron; from tissue; host or cells: pancreas membranes of male Dunkin Hartley guinea-pigs
T2 sequence (Q63931 1-430): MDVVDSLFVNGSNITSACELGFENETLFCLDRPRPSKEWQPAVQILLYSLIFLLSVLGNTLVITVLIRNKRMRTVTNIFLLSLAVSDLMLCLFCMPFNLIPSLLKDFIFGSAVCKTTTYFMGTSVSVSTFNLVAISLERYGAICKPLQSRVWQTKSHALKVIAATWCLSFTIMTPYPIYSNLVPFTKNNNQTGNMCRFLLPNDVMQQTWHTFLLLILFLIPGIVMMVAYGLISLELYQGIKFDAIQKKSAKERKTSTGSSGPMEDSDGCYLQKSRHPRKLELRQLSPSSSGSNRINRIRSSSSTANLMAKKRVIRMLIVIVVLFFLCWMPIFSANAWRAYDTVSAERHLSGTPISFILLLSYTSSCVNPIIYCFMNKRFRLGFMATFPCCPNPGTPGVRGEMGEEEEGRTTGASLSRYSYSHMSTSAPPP
The experiment can be described thus: CCKA radioligand binding assay in guinea-pig pancreas membranes ([125I]-CCK8(S)). The note with it: PD134,308 present, 150 minutes at 21±3°; for Ki: read-out: CCKA pKi (converted). The procedure, abridged: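 Competition for [125I]-CCK8(S) (added as […] solution) ran for 150 min at 21±3° in HEPES pH 7.2. Membranes came from male guinea-pig pancreas at 1 mg/ml original wet weight, with 0.375 μM PD134,308 in the suspension. Filter-bound counts were gamma-counted; 100 nM L-364,718 (added solution) defined non-specific binding.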

For experiment [3], the target named is T3, CCKB receptor (Mus musculus, UniProt P56481).
T3 construct: The cortex was dissected, weighed and homogenised in 40ml ice-cold buffer; tissue Charles River (supplier of the CD1 mice); host or cells: cerebral cortex membranes of male CD1 mice
T3 sequence (P56481 1-453): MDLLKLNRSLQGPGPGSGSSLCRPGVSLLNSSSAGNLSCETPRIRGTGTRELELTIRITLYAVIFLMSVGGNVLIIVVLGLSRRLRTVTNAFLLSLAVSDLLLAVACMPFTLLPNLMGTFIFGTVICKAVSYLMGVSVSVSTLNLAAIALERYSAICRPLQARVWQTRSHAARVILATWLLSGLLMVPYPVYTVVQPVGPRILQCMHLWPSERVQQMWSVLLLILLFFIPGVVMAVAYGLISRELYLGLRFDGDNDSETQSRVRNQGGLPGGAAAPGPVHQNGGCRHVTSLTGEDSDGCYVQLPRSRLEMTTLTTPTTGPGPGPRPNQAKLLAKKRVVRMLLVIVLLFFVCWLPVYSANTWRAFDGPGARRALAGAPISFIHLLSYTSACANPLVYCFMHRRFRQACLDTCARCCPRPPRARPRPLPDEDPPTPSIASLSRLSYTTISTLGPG
The experiment can be described thus: CCKB receptor radioligand binding assay in mouse cortical membranes ([125I]-CCK8S). The settings on record: [125I]-CCK8S 200 pM, 150 min at 21±3°; for Ki: read-out: CCKB pKi (converted). Summed up:
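This was competition binding with tracer [125I]-CCK8S (200 pM solution added), run for 150 min at 21±3° on male CD1 mouse cortex membranes in pH 7.2 HEPES buffer with bacitracin. Filtration then gamma counting gave bound radioactivity. L-365,260 set the non-specific level.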

For the compound `O=C(O)c1cc(NC(=O)[C@H](Cc2ccc(I)cc2)NC(=O)c2cc3[nH]cnc3cc2C(=O)NCC23CC4CC(CC(C4)C2)C3)cc(C(=O)O)c1` [Example 134, 5-(1S-(3,5-dicarboxyphenylaminocarbonyl)-2-(4-iodophenyl)ethylaminocarbonyl)-6-(1-adamantanemethylaminocarbonyl)-benzimidazole], the Kb in experiment [1] is 0.00158 µM. Moreover, the Ki was 0.794 µM in experiment [2] and 0.0251 µM in experiment [3].
Consider “5-(1S-(3-methoxycarbonyl-5-carboxy-phenylaminocarbonyl)-2-phenylethylaminocarbonyl)-6-(1-adamantanemethylaminocarbonyl)-indole and regioisomer with substituents at positions 5 and 6 reversed [Example 40]”, for which, in experiment [1], the “Gastrin pKB” value is 7.3. Besides, the “CCKA pKi” value in experiment [2] worked out at 6.3. Moreover, the “CCKB pKi” value in experiment [3] came out at 6.8.
As for `O=C(O)c1cc(NC(=O)[C@@H]2CCCN2C(=O)c2cc3[nH]cnc3cc2C(=O)NCC23CC4CC(CC(C4)C2)C3)cc(C(=O)O)c1` [Example 77, 5-(2S-(3,5-dicarboxyphenylaminocarbonyl)-pyrrolidinocarbonyl)-6-(1-adamantanemethylaminocarbonyl)-benzimidazole], in experiment [1], the Kb is 0.1 µM. The Ki in experiment [2] is over 10 µM; in experiment [3] it was 0.251 µM.
For `O=C(NCC12CC3CC(CC(C3)C1)C2)c1cc2ccccc2cc1C(=O)N1CCC[C@@H]1C(=O)O` [Example 3, 3-(2R-carboxypyrrolidino-carbonyl)-2-(1-adamantanemethylaminocarbonyl)-naphthalene] the same measures were 0.2 µM, 3.16 µM and 0.398 µM.
`O=C(O)c1cc(NC(=O)[C@H](Cc2ccccc2F)NC(=O)c2cc3[nH]cnc3cc2C(=O)NCC2CCCCCC2)cc(C(=O)O)c1` [Example 70, 5-(1S-(3,5-dicarboxyphenylaminocarbonyl)-2-(2-fluorophenyl)ethylaminocarbonyl)-6-(cycloheptanemethylaminocarbonyl)-benzimidazole]: the Kb in experiment [1] was 0.0158 µM. The figures for the Ki in experiment [2] and in experiment [3] were 7.94 µM and 0.00794 µM, respectively.
As for `O=C(O)c1cc(NC(=O)[C@H](Cc2ccccc2)NC(=O)C2Cc3ccccc3CN2C(=O)NCC23CC4CC(CC(C4)C2)C3)cc(C(=O)O)c1` (stereo partly drawn) [Example 57, 3-(1S-(3,5-dicarboxyphenylaminocarbonyl)-2-phenylethylaminocarbonyl)-2-(1-adamantanemethylaminocarbonyl)-1,2,3,4-tetrahydroisoquinoline], in experiment [1], the Kb was 0.02 µM. In addition, the Ki was 2 µM in experiment [2] and 0.02 µM in experiment [3].
In the case of “5-(1S-(3,5-dicarboxyphenylaminocarbonyl)-2-phenylethylaminocarbonyl)-6-(2,2-dimethylpropylaminocarbonyl)-indole and regioisomer with substituents at positions 5 and 6 reversed [Example 46]”, the “Gastrin pKB” value in experiment [1] is given as 7.1. Further, in experiment [2], the “CCKA pKi” value was 5.1. For the same compound, the “CCKB pKi” value in experiment [3] came to 6.7.
Turning to “5-(1S-(3,5-dicarboxyphenylaminocarbonyl)-2-(2-fluorophenyl)ethylaminocarbonyl)-6-(1-adamantanemethylaminocarbonyl)-indole and regioisomer with substituents at positions 5 and 6 reversed [Example 27]”, the “Gastrin pKB” value in experiment [1] is 9.2. Moreover, in experiment [2], the “CCKA pKi” value turned out to be 5.6. In experiment [3], the “CCKB pKi” value was 8.5.
Regarding `O=C(O)c1cc(NC(=O)[C@@H](Cc2ccccc2)NC(=O)c2cc3[nH]cnc3cc2C(=O)NCC23CC4CC(CC(C4)C2)C3)cc(C(=O)O)c1` [Example 61, 5-(1R-(3,5-dicarboxyphenylaminocarbonyl)-2-phenylethylaminocarbonyl)-6-(1-adamantanemethylaminocarbonyl)-benzimidazole], the Kb in experiment [1] was 0.002 µM. Moreover, the Ki in experiment [2] was 6.31 µM; in experiment [3], 0.00398 µM.
For the compound “5-(1S-(3,5-dicarboxyphenylaminocarbonyl)-ethylaminocarbonyl)-6-(cycloheptanemethylaminocarbonyl)-indole and regioisomer with substituents at positions 5 and 6 reversed [Example 58]”, the “Gastrin pKB” value in experiment [1] amounted to 7.5. Besides, the “CCKA pKi” value in experiment [2] is listed as 5.0. In addition, the “CCKB pKi” value in experiment [3] is recorded as 6.5.
For “5-(2R-(1R-carboxyethylaminocarbonyl)pyrrolidinocarbonyl)-6-(1-adamantanemethylaminocarbonyl)-indole [Example 89]” the same measures were 6.8, 5.1 and 6.2.
For `O=C(O)c1ccc(C(=O)O)c(NC(=O)[C@H](Cc2ccccc2)NC(=O)c2cc3[nH]cnc3cc2C(=O)NCC23CC4CC(CC(C4)C2)C3)c1` [Example 78, 5-(1S-(2,5-dicarboxyphenylaminocarbonyl)-2-phenylethylaminocarbonyl)-6-(1-adamantanemethylaminocarbonyl)-benzimidazole] the same measures were 8.6, 5.3 and 7.3.
For `O=C(O)c1cc(NC(=O)[C@H](Cc2ccccc2)NC(=O)c2ccc3[nH]cnc3c2C(=O)NCC23CC4CC(CC(C4)C2)C3)cc(C(=O)O)c1` [Example 112, 5-(1S-(3,5-dicarboxyphenylaminocarbonyl)-2-phenylethylaminocarbonyl)-4-(1-adamantanemethylaminocarbonyl)-benzimidazole] the same measures were 8.2, under 5.0 and 8.1.
On to “3-(1S-(3,5-dicarboxyphenylaminocarbonyl)-2-phenyl ethylaminocarbonyl)-2-(1-adamantanemethylaminocarbonyl)-5-aminonaphthalene [Example 116]”, for which the “Gastrin pKB” value in experiment [1] came to 9.0. Besides, the “CCKA pKi” value in experiment [2] is listed as 5.6. Further, the “CCKB pKi” value in experiment [3] is given as 8.5.
For the compound `O=C(O)c1cc(NC(=O)[C@H](Cc2ccccc2)NC(=O)c2cc3cc[nH]c3cc2C(=O)NCC23CC4CC(CC(C4)C2)C3)cc(C(=O)O)c1` [Example 24, 5-(1S-(3,5-dicarboxyphenylaminocarbonyl)-2-phenylethylaminocarbonyl)-6-(1-adamantanemethylaminocarbonyl)-indole], the Kb in experiment [1] was 0.000316 µM. In addition, the Ki is 2 µM in experiment [2] and 0.00126 µM in experiment [3].
In the case of “3-(1S-(3,5-dicarboxyphenylaminocarbonyl)-2-phenylethylaminocarbonyl)-2-(1-adamantanemethylaminocarbonyl)-5-nitronaphthalene and its regioisomer with groups at positions 2 and 3 reversed [Example 55]”, the “Gastrin pKB” value in experiment [1] is 8.3. Besides, in experiment [2], the “CCKA pKi” value is recorded as 5.8. Moreover, the “CCKB pKi” value in experiment [3] worked out at 8.2.
